Laboratory results: patent publication US12252524B2, “GIP/GLP1 co-agonist compounds” (Eli Lilly and Company, priority 2018, dated 2025)
Numbered stars: 1 amine (or outer) side, 2 acyl side, 3 side chain; on linkers, the order of the positions; unused ones are H or OH. Square brackets hold non-standard residues; d marks the D form. Side chains are listed from the residue outwards. Peptide text beside a SMILES is read from it. * marks the point of attachment. C18 diacid = O=C(O)CCCCCCCCCCCCCCCCC(=O)*; αMePhe(2-F) = C[C@](N)(Cc1ccccc1F)C(=O)O; γGlu = O=C(O)[C@H](CCC(=O)[*:2])N[*:1]; αMeY = C[C@](N)(Cc1ccc(O)cc1)C(=O)O; αMeF = C[C@](N)(Cc1ccccc1)C(=O)O; 4Pal = N[C@@H](Cc1ccncc1)C(=O)O; αMeL = CC(C)C[C@](C)(N)C(=O)O; Orn = NCCC[C@H](N)C(=O)O; Dab = NCC[C@H](N)C(=O)O; AEEA = NCCOCCOCC(=O)O; Aib = CC(C)(N)C(=O)O

Key:
human Gcg receptor = biological target: T1, human Gcg receptor (Homo sapiens, UniProt P47871); test: [125I]-Glucagon binding (SPA), human Gcg receptor; conditions: read-out: hGLcgR Ki, nM (SEM, n)
T1 construct: expressed in transfected cells; crude membranes
T1 sequence (P47871 26-477): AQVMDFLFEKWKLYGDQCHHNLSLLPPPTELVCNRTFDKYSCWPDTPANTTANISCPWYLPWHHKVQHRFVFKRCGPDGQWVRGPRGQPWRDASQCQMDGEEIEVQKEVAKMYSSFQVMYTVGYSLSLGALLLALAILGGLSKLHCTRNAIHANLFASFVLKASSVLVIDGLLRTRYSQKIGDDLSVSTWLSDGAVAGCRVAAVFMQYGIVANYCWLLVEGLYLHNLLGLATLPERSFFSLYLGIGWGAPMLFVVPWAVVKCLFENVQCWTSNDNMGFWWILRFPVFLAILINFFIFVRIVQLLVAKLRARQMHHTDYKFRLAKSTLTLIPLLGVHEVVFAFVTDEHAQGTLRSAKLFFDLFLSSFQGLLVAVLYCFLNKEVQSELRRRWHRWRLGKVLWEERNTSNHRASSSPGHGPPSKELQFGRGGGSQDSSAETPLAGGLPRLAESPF
How it was run: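 Cell pellets were lysed in hypotonic Tris buffer, pH 7.5, homogenized, and spun at low then high speed to give crude membranes. Ki was derived from the fitted IC50.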

human GIP receptor = biological target: T2, human GIP receptor (Homo sapiens, UniProt P48546); test: [125I]-GIP binding (SPA), human GIP receptor; conditions: read-out: hGIPR Ki, nM (SEM, n)
T2 construct: expressed in transfected cells; crude membranes
T2 sequence (P48546 22-466): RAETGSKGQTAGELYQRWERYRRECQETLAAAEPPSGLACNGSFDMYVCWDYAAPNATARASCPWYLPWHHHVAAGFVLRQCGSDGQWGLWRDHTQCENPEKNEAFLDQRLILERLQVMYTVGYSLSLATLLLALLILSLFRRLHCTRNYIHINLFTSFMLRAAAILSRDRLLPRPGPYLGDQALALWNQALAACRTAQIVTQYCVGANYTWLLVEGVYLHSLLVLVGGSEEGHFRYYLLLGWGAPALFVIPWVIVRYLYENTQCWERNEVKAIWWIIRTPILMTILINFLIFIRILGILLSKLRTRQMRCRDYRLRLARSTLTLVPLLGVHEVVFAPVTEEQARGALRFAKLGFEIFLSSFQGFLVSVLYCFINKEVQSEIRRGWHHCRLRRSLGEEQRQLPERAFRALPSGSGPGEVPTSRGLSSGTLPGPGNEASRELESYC

[1] = biological target: human GLP-1 receptor (GLP-1R) (Homo sapiens, UniProt P43220); test: cAMP pharmacological functional assay in presence of casein, hGLP-1R; format: cell-based; conditions: HEK293 cells expressing hGLP-1R, 0.1% Casein, geometric mean; read-out: hGLP1R cAMP Rel EC50 nM (SEM, n)
human GLP-1 receptor (GLP-1R), sequence (P43220 24-463): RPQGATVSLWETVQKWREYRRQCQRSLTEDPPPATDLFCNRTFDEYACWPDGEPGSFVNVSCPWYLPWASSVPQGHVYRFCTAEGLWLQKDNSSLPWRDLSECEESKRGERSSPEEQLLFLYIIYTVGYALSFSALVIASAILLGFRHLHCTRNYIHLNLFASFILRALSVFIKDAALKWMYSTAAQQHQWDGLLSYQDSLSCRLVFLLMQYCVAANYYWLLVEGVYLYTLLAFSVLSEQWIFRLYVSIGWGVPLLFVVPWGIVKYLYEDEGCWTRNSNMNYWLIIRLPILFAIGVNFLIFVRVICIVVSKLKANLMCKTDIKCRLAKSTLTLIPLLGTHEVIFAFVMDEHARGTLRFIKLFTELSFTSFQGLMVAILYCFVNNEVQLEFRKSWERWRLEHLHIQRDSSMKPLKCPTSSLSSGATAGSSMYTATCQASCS

[2] = biological target: T3, gastric inhibitory peptide receptor (GIPR) (Homo sapiens, UniProt P48546); test: cAMP pharmacological functional assay in presence of casein, hGIPR; format: cell-based; conditions: HEK293 cells expressing hGIPR, 0.1% Casein, geometric mean; read-out: hGIPR cAMP Rel EC50 nM (SEM, n)
T3 sequence (P48546 22-466): T2 sequence (P48546 22-466)

human GLP-1R = human GLP-1R (Homo sapiens, UniProt P43220); test: [125I]-GLP-1 binding (SPA), human GLP-1 receptor; parameters: expressed in transfected cells; crude membranes; conditions: read-out: hGLP1R Ki, (nM) (SEM, n)
human GLP-1R, sequence (P43220 24-463): as above
How it was run: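 Frozen cell pellets are lysed on ice in hypotonic Tris buffer, pH 7.5, homogenized, and centrifuged to a membrane pellet resuspended at about 1 to 3 mg/mL. Binding is then measured in HEPES-based buffer at pH 7.4, and curves are fitted to give IC50 and Ki.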

CC[C@H](C)[C@H](NC(=O)[C@H](CC(C)C)NC(=O)[C@H](Cc1ccc(O)cc1)NC(=O)[C@@H](CCC(=O)O)NC(=O)[C@@H](NC(=O)[C@H](Cc1ccccc1)NC(=O)[C@H](CCC(=O)O)NC(=O)C(C)(C)NC(=O)[C@H](CCC(N)=O)NC(=O)[C@H](C)NC(=O)[C@H](CCCCNC(=O)COCCOCCNC(=O)COCCOCCNC(=O)CC[C@H](NC(=O)CCCCCCCCCCCCCCCCC(=O)O)C(=O)O)NC(=O)[C@H](CCN)NC(=O)[C@H](CC(=O)O)NC(=O)[C@H](CC(C)C)NC(=O)[C@](C)(CC(C)C)NC(=O)[C@@H](NC(=O)[C@H](CO)NC(=O)[C@H](Cc1ccncc1)NC(=O)[C@H](CC(=O)O)NC(=O)[C@H](CO)NC(=O)[C@@H](NC(=O)[C@](C)(Cc1ccccc1)NC(=O)[C@@H](NC(=O)CNC(=O)[C@H](CCC(=O)O)NC(=O)C(C)(C)NC(=O)[C@@H](N)Cc1ccc(O)cc1)[C@@H](C)O)[C@@H](C)O)[C@@H](C)CC)[C@@H](C)CC)C(=O)N[C@@H](CCC(=O)O)C(=O)NCC(=O)NCC(=O)N1CCC[C@H]1C(=O)N[C@@H](CO)C(=O)N[C@@H](CO)C(=O)NCC(=O)N[C@@H](C)C(=O)N1CCC[C@H]1C(=O)N1CCC[C@H]1C(=O)N1CCC[C@H]1C(=O)N[C@@H](CO)C(N)=O [Example 235] (H-Y[Aib]EGT[αMeF]TSD[4Pal]SI[αMeL]LD[Dab]K([AEEA-AEEA-γGlu-C18 diacid])AQ[Aib]EFI[dE]YLIEGGPSSGAPPPS-NH2)
Ki (human Gcg receptor): > 1200 nM | Ki (human GIP receptor): 0.0581 nM | EC50 [1]: 0.136 nM | EC50 [2]: 0.0372 nM | Ki (human GLP-1R): 7.65 nM

CC[C@H](C)[C@H](NC(=O)[C@H](CC(C)C)NC(=O)[C@](C)(Cc1ccc(O)cc1)NC(=O)[C@@H](CCC(=O)O)NC(=O)[C@@H](NC(=O)[C@H](Cc1ccccc1)NC(=O)[C@H](CCC(=O)O)NC(=O)C(C)(C)NC(=O)[C@H](CCC(N)=O)NC(=O)[C@H](C)NC(=O)[C@H](CCCCNC(=O)COCCOCCNC(=O)COCCOCCNC(=O)CC[C@H](NC(=O)CCCCCCCCCCCCCCCCC(=O)O)C(=O)O)NC(=O)[C@H](CCCN)NC(=O)[C@H](CC(=O)O)NC(=O)[C@H](CC(C)C)NC(=O)[C@](C)(CC(C)C)NC(=O)[C@@H](NC(=O)[C@H](CO)NC(=O)[C@H](Cc1ccc(O)cc1)NC(=O)[C@H](CC(=O)O)NC(=O)[C@H](CO)NC(=O)[C@@H](NC(=O)[C@](C)(Cc1ccccc1F)NC(=O)[C@@H](NC(=O)CNC(=O)[C@H](CCC(=O)O)NC(=O)C(C)(C)NC(=O)[C@@H](N)Cc1ccc(O)cc1)[C@@H](C)O)[C@@H](C)O)[C@@H](C)CC)[C@@H](C)CC)C(=O)N[C@@H](CCC(=O)O)C(=O)NCC(=O)NCC(=O)N1CCC[C@H]1C(=O)N[C@@H](CO)C(=O)N[C@@H](CO)C(=O)NCC(=O)N[C@@H](C)C(=O)N1CCC[C@H]1C(=O)N1CCC[C@H]1C(=O)N1CCC[C@H]1C(=O)N[C@@H](CO)C(N)=O [Example 236] (H-Y[Aib]EGT[αMePhe(2-F)]TSDYSI[αMeL]LD[Orn]K([AEEA-AEEA-γGlu-C18 diacid])AQ[Aib]EFI[dE][αMeY]LIEGGPSSGAPPPS-NH2)
Ki (human Gcg receptor): 200 nM | Ki (human GIP receptor): 0.0425 nM | EC50 [1]: 0.0231 nM | EC50 [2]: 0.0249 nM | Ki (human GLP-1R): 1.05 nM

CC[C@H](C)[C@H](NC(=O)[C@H](CC(C)C)NC(=O)[C@](C)(Cc1ccc(O)cc1)NC(=O)[C@@H](CCC(=O)O)NC(=O)[C@@H](NC(=O)[C@H](Cc1ccccc1)NC(=O)[C@H](CCC(=O)O)NC(=O)C(C)(C)NC(=O)[C@H](CCC(N)=O)NC(=O)[C@H](C)NC(=O)[C@H](CCCCNC(=O)COCCOCCNC(=O)COCCOCCNC(=O)CC[C@H](NC(=O)CCCCCCCCCCCCCCCCC(=O)O)C(=O)O)NC(=O)[C@H](CCCN)NC(=O)[C@H](CC(=O)O)NC(=O)[C@H](CC(C)C)NC(=O)[C@](C)(CC(C)C)NC(=O)[C@@H](NC(=O)[C@H](CO)NC(=O)[C@H](C)NC(=O)[C@H](CC(=O)O)NC(=O)[C@H](CO)NC(=O)[C@@H](NC(=O)[C@](C)(Cc1ccccc1F)NC(=O)[C@@H](NC(=O)CNC(=O)[C@H](CCC(=O)O)NC(=O)C(C)(C)NC(=O)[C@@H](N)Cc1ccc(O)cc1)[C@@H](C)O)[C@@H](C)O)[C@@H](C)CC)[C@@H](C)CC)C(=O)N[C@@H](CCC(=O)O)C(=O)NCC(=O)NCC(=O)N1CCC[C@H]1C(=O)N[C@@H](CO)C(=O)N[C@@H](CO)C(=O)NCC(=O)N[C@@H](C)C(=O)N1CCC[C@H]1C(=O)N1CCC[C@H]1C(=O)N1CCC[C@H]1C(=O)N[C@@H](CO)C(N)=O [Example 237] (H-Y[Aib]EGT[αMePhe(2-F)]TSDASI[αMeL]LD[Orn]K([AEEA-AEEA-γGlu-C18 diacid])AQ[Aib]EFI[dE][αMeY]LIEGGPSSGAPPPS-NH2)
Ki (human Gcg receptor): > 1060 nM | Ki (human GIP receptor): 0.131 nM | EC50 [1]: 0.0187 nM | EC50 [2]: 0.0883 nM | Ki (human GLP-1R): 1.04 nM

CC[C@H](C)[C@H](NC(=O)[C@H](CC(C)C)NC(=O)[C@](C)(Cc1ccc(O)cc1)NC(=O)[C@@H](CCC(=O)O)NC(=O)[C@@H](NC(=O)[C@H](Cc1ccccc1)NC(=O)[C@H](CCC(=O)O)NC(=O)C(C)(C)NC(=O)[C@H](CCC(N)=O)NC(=O)[C@H](C)NC(=O)[C@H](CCCCNC(=O)COCCOCCNC(=O)COCCOCCNC(=O)CC[C@H](NC(=O)CCCCCCCCCCCCCCCCC(=O)O)C(=O)O)NC(=O)[C@H](CCCN)NC(=O)[C@H](CC(=O)O)NC(=O)[C@H](CC(C)C)NC(=O)[C@](C)(CC(C)C)NC(=O)[C@@H](NC(=O)[C@H](CO)NC(=O)[C@H](CC(C)C)NC(=O)[C@H](CC(=O)O)NC(=O)[C@H](CO)NC(=O)[C@@H](NC(=O)[C@](C)(Cc1ccccc1F)NC(=O)[C@@H](NC(=O)CNC(=O)[C@H](CCC(=O)O)NC(=O)C(C)(C)NC(=O)[C@@H](N)Cc1ccc(O)cc1)[C@@H](C)O)[C@@H](C)O)[C@@H](C)CC)[C@@H](C)CC)C(=O)N[C@@H](CCC(=O)O)C(=O)NCC(=O)NCC(=O)N1CCC[C@H]1C(=O)N[C@@H](CO)C(=O)N[C@@H](CO)C(=O)NCC(=O)N[C@@H](C)C(=O)N1CCC[C@H]1C(=O)N1CCC[C@H]1C(=O)N1CCC[C@H]1C(=O)N[C@@H](CO)C(N)=O [Example 238] (H-Y[Aib]EGT[αMePhe(2-F)]TSDLSI[αMeL]LD[Orn]K([AEEA-AEEA-γGlu-C18 diacid])AQ[Aib]EFI[dE][αMeY]LIEGGPSSGAPPPS-NH2)
Ki (human Gcg receptor): 230 nM | Ki (human GIP receptor): 0.0403 nM | EC50 [1]: 0.0241 nM | EC50 [2]: 0.0296 nM | Ki (human GLP-1R): 0.548 nM

CC[C@H](C)[C@H](NC(=O)[C@H](CC(C)C)NC(=O)[C@](C)(Cc1ccc(O)cc1)NC(=O)[C@@H](CCC(=O)O)NC(=O)[C@@H](NC(=O)[C@H](Cc1ccccc1)NC(=O)[C@@H](NC(=O)C(C)(C)NC(=O)[C@H](CCC(N)=O)NC(=O)[C@H](C)NC(=O)[C@H](CCCCNC(=O)COCCOCCNC(=O)COCCOCCNC(=O)CC[C@H](NC(=O)CCCCCCCCCCCCCCCCC(=O)O)C(=O)O)NC(=O)[C@H](CCCN)NC(=O)[C@H](CC(=O)O)NC(=O)[C@H](CC(C)C)NC(=O)[C@](C)(CC(C)C)NC(=O)[C@@H](NC(=O)[C@H](CO)NC(=O)[C@H](Cc1ccncc1)NC(=O)[C@H](CC(=O)O)NC(=O)[C@H](CO)NC(=O)[C@@H](NC(=O)[C@](C)(Cc1ccccc1F)NC(=O)[C@@H](NC(=O)CNC(=O)[C@H](CCC(=O)O)NC(=O)C(C)(C)NC(=O)[C@@H](N)Cc1ccc(O)cc1)[C@@H](C)O)[C@@H](C)O)[C@@H](C)CC)[C@@H](C)O)[C@@H](C)CC)C(=O)N[C@@H](CCC(=O)O)C(=O)NCC(=O)NCC(=O)N1CCC[C@H]1C(=O)N[C@@H](CO)C(=O)N[C@@H](CO)C(=O)NCC(=O)N[C@@H](C)C(=O)N1CCC[C@H]1C(=O)N1CCC[C@H]1C(=O)N1CCC[C@H]1C(=O)N[C@@H](CO)C(N)=O [Example 239] (H-Y[Aib]EGT[αMePhe(2-F)]TSD[4Pal]SI[αMeL]LD[Orn]K([AEEA-AEEA-γGlu-C18 diacid])AQ[Aib]TFI[dE][αMeY]LIEGGPSSGAPPPS-NH2; N-terminus assumed)
Ki (human Gcg receptor): 596 nM | Ki (human GIP receptor): 0.101 nM | EC50 [1]: 0.0376 nM | EC50 [2]: 0.0353 nM | Ki (human GLP-1R): 2.71 nM
